Test results: US7468194B1, “Preparations for the application of anti-inflammatory agents” (Euro-Celtique, S.A., priority 1999, dated 2008)

Test system: adult articular cartilage
Assay: effect on cartilage of sesamoid bones, release of proteoglycan and COMP fragments
Assay type: cell-based, bovine
Conditions: 10 min treatment at 37° C., undiluted or diluted 1:10, 1:100, 1:1000 with Ringer's solution; compared with Ringer's solution control
Procedure: In an unpublished study, the effects of povidone iodine in non-liposomal form was studied on adult articular cartilage.
Sesamoid bones were dissected within 2-4 h after slaughter from bovine metacarpo-phalangeal joints of adult animals under aseptic conditions. The cartilage from sesamoid bones of a particular animal is uniform with respect to glycosaminoglycan synthesis, glycosaminoglycan content, and proteoglycan composition. Each experimental group consisted of eight sesamoid bones from the same animal. The sesamoid bones were washed in 10 ml cold sterile Ringer's solution for 10 min, incubated respectively in 10 ml of sterile Ringer's solution (control), PVP-iodine, or PVP-iodine dilutions with Ringer's solution (1:10, 1:100, or 1:1000) at 37° C. for 10 min in a humidified atmosphere of 5% CO2 in air, and subsequently washed again for 5×5 min in 10 ml Ringer's solution in each case. […] The culture media of sesamoid bones and extracts of cartilage plugs were used for the quantitative and qualitative characterization of proteoglycans and COMP (cartilage oligomeric matrix protein), because an increased release of fragments of these cartilage matrix constituents equals to a catabolic pathway.

**Q.** For “poly(1-vinyl-2-pyrrolidin-2-one)-iodine complex [PVP-iodine]”, which “proteolytic fragmentation of cartilage matrix constituents (proteoglycans, COMP)” value is on record?
**A.** no increased proteolytic fragmentation
